Assay results from the supplement of paper PMC10721915.

Assays:
Assay in all cases: relative cell growth vs untreated control (GI, NCI-DTP normalisation with time-zero) (fraction of control growth); higher = more growth / less inhibition
Conditions in all cases: treatment time: 120 h
MIAPACA2 = system: MIAPACA2
Method: (§1)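 Cancer cell lines in 96-well plates were treated 48 h after seeding with M4076 (ATM inhibitor) and berzosertib (ATR inhibitor), alone or mixed, in 4-fold dilutions for 120 h. Protein was read by sulforhodamine B staining, background-subtracted and normalised NCI-DTP style to untreated control growth. Rows with one concentration equal to 0 are monotherapy.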

A204 = system: A204
Method: as §1

LOVO = system: LOVO
Method: as §1

DU145 = system: DU145
Method: as §1

NCIH460 = system: NCIH460
Method: as §1

HL60 = system: HL60
Method: as §1

RAMOS = system: RAMOS
Method: as §1

COc1cc2ncc3c(c2cc1-c1cn(C)nc1C)n(-c1c(F)cncc1OC)c(=O)n3C [M4076] + CNCc1ccc(-c2cc(-c3nc(-c4ccc(S(=O)(=O)C(C)C)cc4)cnc3N)on2)cc1 [berzosertib]
relative cell growth
Conditions	A204	DU145	HL60	LOVO	MIAPACA2	NCIH460	RAMOS
concentration of first compound 0.0195 µM, concentration of partner 0 M	1.25	1.09	1.14	1.25	1.08	1.14	1.04
concentration of first compound 0.0195 µM, concentration of partner 0.2 µM	0.675	1.05	1.06	0.105	0.643	0.607	1.14
concentration of first compound 0.0781 µM, concentration of partner 0 M	1.16	1.12	1.13	1.21	1.17	1.16	1.12
concentration of first compound 0.0781 µM, concentration of partner 0.2 µM	0.9	1.09	1.12	0.209	0.542	0.678	1.17
concentration of first compound 0.313 µM, concentration of partner 0 M	1.1	1.11	1.03	1.09	1.03	1.14	1.01
concentration of first compound 0.313 µM, concentration of partner 0.2 µM	0.654	0.774	0.788	0.0984	0.269	0.354	1.12
concentration of first compound 1 µM, concentration of partner 0 M	0.83	0.98	0.862	0.971	1.08	0.972	0.888
concentration of first compound 1 µM, concentration of partner 0.0195 µM	0.965	0.893	0.88	0.763	0.891	0.969	0.918
concentration of first compound 1 µM, concentration of partner 0.0781 µM	0.785	0.862	0.707	0.508	0.439	0.79	0.945
concentration of first compound 1 µM, concentration of partner 0.313 µM	0.205	0.133	0.0883	-0.0419	0.061	0.0691	0.751
concentration of first compound 1 µM, concentration of partner 1.25 µM	-0.0708	-0.0604	0.00814	-0.0608	0.0345	-0.00904	0.0625
concentration of first compound 1 µM, concentration of partner 5 µM	-0.102	-0.0855	-0.0212	-0.0633	-0.0126	-0.0222	0.0153
concentration of first compound 1.25 µM, concentration of partner 0 M	0.914	1.05	0.958	1.1	1.18	1.11	0.914
concentration of first compound 1.25 µM, concentration of partner 0.2 µM	0.685	0.496	0.344	-0.000928	0.126	0.199	1.09
concentration of first compound 5 µM, concentration of partner 0 M	0.524	0.872	0.746	0.981	1.09	1.06	0.778
concentration of first compound 5 µM, concentration of partner 0.2 µM	0.337	0.307	0.207	-0.0311	0.157	0.203	0.915

CNCc1ccc(-c2cc(-c3nc(-c4ccc(S(=O)(=O)C(C)C)cc4)cnc3N)on2)cc1 [berzosertib] + COc1cc2ncc3c(c2cc1-c1cn(C)nc1C)n(-c1c(F)cncc1OC)c(=O)n3C [M4076]
relative cell growth, concentration of partner 0 M
Conditions	A204	DU145	HL60	LOVO	MIAPACA2	NCIH460	RAMOS
concentration of first compound 0.0195 µM	1.15	1.08	1.14	1.07	1.06	1.12	1.1
concentration of first compound 0.0781 µM	1.06	1.13	1.1	0.826	0.974	1.09	1.11
concentration of first compound 0.2 µM	0.623	1.03	0.809	0.211	0.661	0.607	1.16
concentration of first compound 0.313 µM	0.583	0.825	0.53	0.0258	0.235	0.357	1.05
concentration of first compound 1.25 µM	-0.0148	-0.0103	0.0485	-0.0498	0.0129	0.0867	0.322
concentration of first compound 5 µM	-0.0897	-0.0587	-0.0133	-0.0599	-0.0366	0.0406	0.103
